The record followed here is patent publication US20230416329A1, “A PEPTIDE WITH DISULFIDE BONDS AND INHIBITORY ACTIVITY AGAINST SERINE PROTEASES, DERIVED HYBRID PEPTIDES THEREOF, AND USES THEREOF” (INSTITUTE OF MATERIA MEDICA , CHINESE ACADEMY OF MEDICAL …, priority 2020, published 2023).

One data set addresses DPP-IV (Homo sapiens, UniProt P27487). Description: Tolerance of GLP-1 and its analogues to DPP-IV (RP-HPLC remaining peak area). Type of data set: in vitro ADME. To be noted: peptide 25 μM, DPP-IV 0.5 ng/μL, 37° C.; for Remaining peak area (%)/DPP-IV: 0.0 h; for remaining at 0.5 h, 25 μM / remaining at 2 h, 25 μM / remaining at 4 h, 25 μM / remaining at 8 h, 25 μM / remaining at 12 h, 25 μM: isolated DPP-IV enzyme in buffer, pH 8. The procedure: Mix by centrifugation at 8000 rpm for 30 seconds.
(2) Arrange a certain volume of 0.005 μg/μL DPP-IV solution in another sterile EP.

A further data set addresses chymotrypsin (Bos taurus, UniProt P00766). Description: in vitro. The note with it: isolated enzyme chymotrypsin, pH 7.8, Remaining peak area (%)/chymotrypsin. The method, boiled down:
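RP-HPLC peak area tracked intact peptide after 37 °C digestion with chymotrypsin (0.05 μg/μL solution, 5 min preincubation). Samples were withdrawn at 1.5-60.0 min and stopped with 10% TFA.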

Data set [1] can be described thus: Stability of GLP-1 and its analogues in human serum. The note with it: 25% (v/v) human serum; for Remaining peak area (%)/human serum: 0.0 h, peptide 0.03 mM, 37° C.; for remaining at 0.5 h, 0.03 mM / remaining at 2 h, 0.03 mM / remaining at 4 h, 0.03 mM / remaining at 8 h, 0.03 mM / remaining at 12 h, 0.03 mM: human, pH 7.

Sequence of DPP-IV (P27487 whole entry, species assumed): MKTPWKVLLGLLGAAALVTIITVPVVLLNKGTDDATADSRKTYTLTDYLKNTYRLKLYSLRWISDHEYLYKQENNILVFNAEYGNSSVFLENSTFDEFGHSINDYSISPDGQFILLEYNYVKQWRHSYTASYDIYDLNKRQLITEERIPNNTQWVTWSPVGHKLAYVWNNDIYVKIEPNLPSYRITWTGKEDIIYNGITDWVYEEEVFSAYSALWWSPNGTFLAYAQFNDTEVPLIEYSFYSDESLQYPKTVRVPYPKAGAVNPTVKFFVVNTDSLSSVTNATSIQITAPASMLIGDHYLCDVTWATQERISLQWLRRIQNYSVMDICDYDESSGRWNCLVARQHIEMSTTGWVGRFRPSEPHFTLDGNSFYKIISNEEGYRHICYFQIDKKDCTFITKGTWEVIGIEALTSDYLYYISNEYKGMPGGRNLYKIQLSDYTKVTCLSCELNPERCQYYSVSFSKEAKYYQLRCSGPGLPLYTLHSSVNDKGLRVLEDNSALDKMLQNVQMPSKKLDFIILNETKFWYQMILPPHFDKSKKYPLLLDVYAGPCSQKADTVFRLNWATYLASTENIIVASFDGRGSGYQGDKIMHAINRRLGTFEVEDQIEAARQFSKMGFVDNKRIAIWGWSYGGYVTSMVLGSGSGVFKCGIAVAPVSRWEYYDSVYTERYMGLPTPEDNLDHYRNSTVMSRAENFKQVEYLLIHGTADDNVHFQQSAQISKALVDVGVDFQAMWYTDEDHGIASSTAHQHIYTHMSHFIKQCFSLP

Consider `CC[C@H](C)[C@H](NC(=O)[C@H](Cc1ccccc1)NC(=O)[C@H](CCC(=O)O)NC(=O)[C@H](CCCCN)NC(=O)[C@H](C)NC(=O)[C@H](C)NC(=O)[C@H](CCC(N)=O)NC(=O)CNC(=O)[C@H](CCC(=O)O)NC(=O)[C@H](CC(C)C)NC(=O)[C@H](Cc1ccc(O)cc1)NC(=O)[C@H](CO)NC(=O)[C@H](CO)NC(=O)[C@@H](NC(=O)[C@H](CC(=O)O)NC(=O)[C@H](CO)NC(=O)[C@@H](NC(=O)[C@H](Cc1ccccc1)NC(=O)[C@@H](NC(=O)CNC(=O)[C@H](CCC(=O)O)NC(=O)[C@H](C)NC(=O)[C@H](Cc1c[nH]cn1)NC(=O)CNC(=O)CNC(=O)[C@@H](NC(=O)[C@@H]1CCCN1C(=O)[C@@H](NC(=O)CNC(=O)CNC(=O)[C@H](Cc1ccc(O)cc1)NC(=O)[C@@H]1CSSC[C@H](NC(=O)[C@@H](N)CO)C(=O)N[C@@H]([C@@H](C)O)C(=O)N[C@@H](Cc2ccc(O)cc2)C(=O)N[C@@H](CO)C(=O)N[C@@H]([C@@H](C)CC)C(=O)N2CCC[C@H]2C(=O)N2CCC[C@H]2C(=O)N[C@@H](CCC(N)=O)C(=O)N1)[C@@H](C)CC)[C@@H](C)CC)[C@@H](C)O)[C@@H](C)O)C(C)C)C(=O)N[C@@H](C)C(=O)N[C@@H](Cc1c[nH]c2ccccc12)C(=O)N[C@@H](CC(C)C)C(=O)N[C@H](C(=O)N[C@@H](CCCCN)C(=O)NCC(=O)N[C@@H](CCCNC(=N)N)C(=O)NCC(=O)NCC(=O)N[C@@H](CCCCN)C(=O)O)C(C)C` [CH4-D-GLP-1], for which, on DPP-IV, the “Remaining peak area (%)/DPP-IV” value came to 100.0 ± 0.0%; the share remaining at 0.5 h, 25 μM came out at 88.5 ± 0.7%; the share remaining at 2 h, 25 μM was 90 ± 0.9%; the fraction remaining at 4 h, 25 μM came to 92.4 ± 0.5%. Besides, at DPP-IV, the share remaining at 8 h, 25 μM came out at 85.1 ± 0.9% and the share remaining at 12 h, 25 μM worked out at 88.6 ± 3.7%. For the same compound, at chymotrypsin, the share remaining at 0.025 h, 60 μM is 84.9 ± 1.6%; the fraction remaining at 0.05 h, 60 μM stood at 89.6 ± 4.2%; the fraction remaining at 0.075 h, 60 μM is 83.6 ± 0.5%; the amount remaining at 0.1 h, 60 μM turned out to be 86.2 ± 0.7%. For the same compound, on chymotrypsin, the share remaining at 0.15 h, 60 μM turned out to be 81.1 ± 4.7%; the fraction remaining at 0.25 h, 60 μM amounted to 83.3 ± 1.4%; the share remaining at 0.5 h, 60 μM amounted to 84.5 ± 3.7%; the share remaining at 1 h, 60 μM came to 78.6 ± 2%. In addition, in data set [1], the “Remaining peak area (%)/human serum” value came out at 100.0 ± 0.0%; the share remaining at 0.5 h, 0.03 mM came to 72.3 ± 0.5%; the fraction remaining at 2 h, 0.03 mM turned out to be 34 ± 0.2%; the share remaining at 4 h, 0.03 mM was determined as 16.6 ± 0.8%. Besides, in data set [1], the fraction remaining at 8 h, 0.03 mM amounted to 4.4 ± 0.2% and the fraction remaining at 12 h, 0.03 mM was 1.8 ± 0.1%.
Turning to `CC[C@H](C)[C@H](NC(=O)[C@H](Cc1ccccc1)NC(=O)[C@H](CCC(=O)O)NC(=O)[C@H](CCCCN)NC(=O)[C@H](C)NC(=O)[C@H](C)NC(=O)[C@H](CCC(N)=O)NC(=O)CNC(=O)[C@H](CCC(=O)O)NC(=O)[C@H](CC(C)C)NC(=O)[C@H](Cc1ccc(O)cc1)NC(=O)[C@H](CO)NC(=O)[C@H](CO)NC(=O)[C@@H](NC(=O)[C@H](CC(=O)O)NC(=O)[C@H](CO)NC(=O)[C@@H](NC(=O)[C@H](Cc1ccccc1)NC(=O)[C@@H](NC(=O)CNC(=O)[C@H](CCC(=O)O)NC(=O)[C@H](C)NC(=O)[C@H](Cc1c[nH]cn1)NC(=O)CNC(=O)CNC(=O)[C@@H](NC(=O)[C@@H]1CCCN1C(=O)[C@@H](NC(=O)CNC(=O)CNC(=O)[C@H](Cc1ccc(O)cc1)NC(=O)[C@@H]1CSSC[C@H](NC(=O)[C@@H](N)Cc2ccccc2)C(=O)N[C@@H]([C@@H](C)O)C(=O)N[C@@H](Cc2ccc(O)cc2)C(=O)N[C@@H](CO)C(=O)N[C@@H]([C@@H](C)CC)C(=O)N2CCC[C@H]2C(=O)N2CCC[C@H]2C(=O)N[C@@H](CCC(N)=O)C(=O)N1)[C@@H](C)CC)[C@@H](C)CC)[C@@H](C)O)[C@@H](C)O)C(C)C)C(=O)N[C@@H](C)C(=O)N[C@@H](Cc1c[nH]c2ccccc12)C(=O)N[C@@H](CC(C)C)C(=O)N[C@H](C(=O)N[C@@H](CCCCN)C(=O)NCC(=O)N[C@@H](CCCNC(=N)N)C(=O)NCC(=O)NCC(=O)N[C@@H](CCCCN)C(=O)O)C(C)C` [CH10-D-GLP-1], at DPP-IV, the “Remaining peak area (%)/DPP-IV” value worked out at 100.0 ± 0.0%; the amount remaining at 0.5 h, 25 μM was 91.2 ± 3.2%; the amount remaining at 2 h, 25 μM was 94.1 ± 2.3%; the amount remaining at 4 h, 25 μM was found to be 86.8 ± 0.8%. Besides, at DPP-IV, the share remaining at 8 h, 25 μM was 84.1 ± 6.7% and the share remaining at 12 h, 25 μM was 81.8 ± 0.6%. On chymotrypsin, the share remaining at 0.025 h, 60 μM is 59.7 ± 2.1%; the amount remaining at 0.05 h, 60 μM came out at 59.1 ± 4.5%; the amount remaining at 0.075 h, 60 μM was 54.5 ± 1.2%; the amount remaining at 0.1 h, 60 μM is 57.3 ± 1.5%. Further, at chymotrypsin, the amount remaining at 0.15 h, 60 μM was determined as 56.3 ± 4.7%; the share remaining at 0.25 h, 60 μM was 54 ± 4.7%; the amount remaining at 0.5 h, 60 μM was 57.4 ± 4%; the amount remaining at 1 h, 60 μM turned out to be 59.4 ± 2.1%. In data set [1], the “Remaining peak area (%)/human serum” value is reported as 100.0 ± 0.0%; the fraction remaining at 0.5 h, 0.03 mM worked out at 74.4 ± 5.5%; the amount remaining at 2 h, 0.03 mM amounted to 54.8 ± 2.1%; the fraction remaining at 4 h, 0.03 mM turned out to be 26.2 ± 2.9%. For the same compound, in data set [1], the share remaining at 8 h, 0.03 mM worked out at 7.3 ± 1% and the amount remaining at 12 h, 0.03 mM was 0.8%.
With `CC[C@H](C)[C@H](NC(=O)[C@H](Cc1ccccc1)NC(=O)[C@H](CCC(=O)O)NC(=O)[C@H](CCCCN)NC(=O)[C@H](C)NC(=O)[C@H](C)NC(=O)[C@H](CCC(N)=O)NC(=O)CNC(=O)[C@H](CCC(=O)O)NC(=O)[C@H](CC(C)C)NC(=O)[C@H](Cc1ccc(O)cc1)NC(=O)[C@H](CO)NC(=O)[C@H](CO)NC(=O)[C@@H](NC(=O)[C@H](CC(=O)O)NC(=O)[C@H](CO)NC(=O)[C@@H](NC(=O)[C@H](Cc1ccccc1)NC(=O)[C@@H](NC(=O)CNC(=O)[C@H](CCC(=O)O)NC(=O)[C@H](C)NC(=O)[C@H](Cc1c[nH]cn1)NC(=O)CNC(=O)CNC(=O)[C@@H](NC(=O)[C@@H]1CCCN1C(=O)[C@@H](NC(=O)CN)[C@@H](C)CC)[C@@H](C)CC)[C@@H](C)O)[C@@H](C)O)C(C)C)C(=O)N[C@@H](C)C(=O)N[C@@H](Cc1c[nH]c2ccccc12)C(=O)N[C@@H](CC(C)C)C(=O)N[C@H](C(=O)N[C@@H](CCCCN)C(=O)NCC(=O)N[C@@H](CCCNC(=N)N)C(=O)NCC(=O)NCC(=O)N[C@@H](CCCCN)C(=O)NCC(=O)N[C@@H](CO)C(=O)N[C@H]1CSSC[C@@H](C(=O)N[C@@H](Cc2ccc(O)cc2)C(=O)NCC(=O)O)NC(=O)[C@H](CCC(N)=O)NC(=O)[C@@H]2CCCN2C(=O)[C@@H]2CCCN2C(=O)[C@H]([C@@H](C)CC)NC(=O)[C@H](CO)NC(=O)[C@H](Cc2ccc(O)cc2)NC(=O)[C@H]([C@@H](C)O)NC1=O)C(C)C` [D-GLP-1-CH4], on DPP-IV, the “Remaining peak area (%)/DPP-IV” value was found to be 100.0 ± 0.0%; the amount remaining at 0.5 h, 25 μM came out at 81.6 ± 1.9%; the amount remaining at 2 h, 25 μM was determined as 76.4 ± 4.2%; the fraction remaining at 4 h, 25 μM came to 80.8 ± 1.4%. On DPP-IV, the fraction remaining at 8 h, 25 μM was found to be 75.1 ± 2.4% and the share remaining at 12 h, 25 μM turned out to be 71 ± 3%. Further, at chymotrypsin, the fraction remaining at 0.025 h, 60 μM stood at 80.9 ± 1.7%; the fraction remaining at 0.05 h, 60 μM worked out at 78 ± 2.9%; the amount remaining at 0.075 h, 60 μM came to 83.2 ± 0.3%; the amount remaining at 0.1 h, 60 μM came to 83.9 ± 3%. Further, on chymotrypsin, the share remaining at 0.15 h, 60 μM was determined as 82.4 ± 3.9%; the amount remaining at 0.25 h, 60 μM came to 78.5 ± 2.1%; the share remaining at 0.5 h, 60 μM turned out to be 81.3 ± 2.8%; the amount remaining at 1 h, 60 μM was determined as 76.3 ± 2.7%. In data set [1], the “Remaining peak area (%)/human serum” value is recorded as 100.0 ± 0.0%; the amount remaining at 0.5 h, 0.03 mM turned out to be 106 ± 15.8%; the share remaining at 2 h, 0.03 mM was 97.6 ± 5.4%; the share remaining at 4 h, 0.03 mM stood at 83 ± 3.1%. Besides, in data set [1], the amount remaining at 8 h, 0.03 mM is 64 ± 6.8% and the fraction remaining at 12 h, 0.03 mM turned out to be 58.2 ± 10%.
